Measurements from the supplement of paper PMC10307832.

Experiments:
Experiment in all cases: relative viability (nuclei count vs DMSO), 5 days (fraction); higher = more cells survive
[1] = system: EMC-BAC-2
Outline: (§1)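 Lung cancer cell lines in 1536-well plates got either a single drug or a fixed anchor-drug dose together with five library-drug doses (not always all listed) in √10 steps, by pin tool, on the day after seeding. Nuclei were counted after 5 days, and relative viability is the treated-to-vehicle ratio of nuclei counts. Values are medians of duplicate plates.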

[2] = system: NCI-H650
Outline: as §1

[3] = system: NCI-H2023
Outline: as §1

[4] = system: NCI-H1993
Outline: as §1

[5] = system: NCI-H1395
Outline: as §1

[6] = system: HCC-44
Outline: as §1

[7] = system: LOU-NH91
Outline: as §1

[8] = system: NCI-H727
Outline: as §1

[9] = system: 201T
Outline: as §1

[10] = system: NCI-H596
Outline: as §1

[11] = system: NCI-H647
Outline: as §1

[12] = system: NCI-H838
Outline: as §1

[13] = system: NCI-H2347
Outline: as §1

[14] = system: NCI-H2126
Outline: as §1

[15] = system: BEN
Outline: as §1

[16] = system: NCI-H23
Outline: as §1

[17] = system: HARA
Outline: as §1

[18] = system: NCI-H2087
Outline: as §1

[19] = system: NCI-H3122
Outline: as §1

COc1cc2nccc(Oc3ccc(NC(=O)Nc4cc(C)on4)c(Cl)c3)c2cc1OC [Tivozanib] + CS(=O)(=O)CCNCc1ccc(-c2ccc3ncnc(Nc4ccc(OCc5cccc(F)c5)c(Cl)c4)c3c2)o1 [Lapatinib] (partner 2 µM)
relative viability ([1]; first compound 0.005 µM): 0.954
relative viability ([1]; first compound 0.01581 µM): 0.875
relative viability ([1]; first compound 0.05 µM): 0.871
relative viability ([1]; first compound 0.1581 µM): 0.675
relative viability ([1]; first compound 0.5 µM): 0.908
relative viability ([2]; first compound 0.005 µM): 0.759
relative viability ([2]; first compound 0.01581 µM): 0.807
relative viability ([2]; first compound 0.05 µM): 0.844
relative viability ([2]; first compound 0.1581 µM): 0.415
relative viability ([2]; first compound 0.5 µM): 0.535
relative viability ([3]; first compound 0.005 µM): 0.731
relative viability ([3]; first compound 0.01581 µM): 0.97
relative viability ([3]; first compound 0.05 µM): 0.878
relative viability ([3]; first compound 0.1581 µM): 0.634
relative viability ([3]; first compound 0.5 µM): 0.768
relative viability ([4]; first compound 0.005 µM): 0.774
relative viability ([4]; first compound 0.01581 µM): 0.775
relative viability ([4]; first compound 0.05 µM): 0.758
relative viability ([4]; first compound 0.1581 µM): 0.713
relative viability ([4]; first compound 0.5 µM): 0.739
relative viability ([5]; first compound 0.005 µM): 0.939
relative viability ([5]; first compound 0.01581 µM): 1.11
relative viability ([5]; first compound 0.05 µM): 1.02
relative viability ([5]; first compound 0.1581 µM): 0.863
relative viability ([5]; first compound 0.5 µM): 0.778
relative viability ([6]; first compound 0.005 µM): 0.95
relative viability ([6]; first compound 0.01581 µM): 0.991
relative viability ([6]; first compound 0.05 µM): 1.01
relative viability ([6]; first compound 0.1581 µM): 0.991
relative viability ([6]; first compound 0.5 µM): 0.952
relative viability ([7]; first compound 0.005 µM): 0.704
relative viability ([7]; first compound 0.01581 µM): 0.772
relative viability ([7]; first compound 0.05 µM): 0.758
relative viability ([7]; first compound 0.1581 µM): 0.62
relative viability ([7]; first compound 0.5 µM): 0.794
relative viability ([8]; first compound 0.005 µM): 0.676
relative viability ([8]; first compound 0.01581 µM): 0.901
relative viability ([8]; first compound 0.05 µM): 0.957
relative viability ([8]; first compound 0.5 µM): 0.787
relative viability ([9]; first compound 0.005 µM): 1.04
relative viability ([9]; first compound 0.01581 µM): 1.06
relative viability ([9]; first compound 0.05 µM): 1.01
relative viability ([9]; first compound 0.1581 µM): 0.988
relative viability ([9]; first compound 0.5 µM): 1.07
relative viability ([10]; first compound 0.005 µM): 0.998
relative viability ([10]; first compound 0.01581 µM): 1.04
relative viability ([10]; first compound 0.05 µM): 1.04
relative viability ([10]; first compound 0.1581 µM): 1.04
relative viability ([10]; first compound 0.5 µM): 1.08
relative viability ([11]; first compound 0.005 µM): 0.935
relative viability ([11]; first compound 0.01581 µM): 0.971
relative viability ([11]; first compound 0.05 µM): 0.98
relative viability ([11]; first compound 0.1581 µM): 0.866
relative viability ([11]; first compound 0.5 µM): 0.966
relative viability ([12]; first compound 0.005 µM): 0.933
relative viability ([12]; first compound 0.01581 µM): 0.913
relative viability ([12]; first compound 0.05 µM): 1.01
relative viability ([12]; first compound 0.5 µM): 0.87
relative viability ([13]; first compound 0.005 µM): 0.881
relative viability ([13]; first compound 0.01581 µM): 0.93
relative viability ([13]; first compound 0.05 µM): 0.963
relative viability ([13]; first compound 0.1581 µM): 1.11
relative viability ([13]; first compound 0.5 µM): 0.907
relative viability ([14]; first compound 0.005 µM): 0.686
relative viability ([14]; first compound 0.01581 µM): 0.784
relative viability ([14]; first compound 0.05 µM): 0.755
relative viability ([14]; first compound 0.1581 µM): 0.559
relative viability ([14]; first compound 0.5 µM): 0.774
relative viability ([15]; first compound 0.005 µM): 0.476
relative viability ([15]; first compound 0.01581 µM): 0.839
relative viability ([15]; first compound 0.05 µM): 0.722
relative viability ([15]; first compound 0.5 µM): 0.633
relative viability ([16]; first compound 0.005 µM): 1.1
relative viability ([16]; first compound 0.01581 µM): 1.37
relative viability ([16]; first compound 0.05 µM): 1.09
relative viability ([16]; first compound 0.1581 µM): 0.858
relative viability ([16]; first compound 0.5 µM): 0.942
relative viability ([17]; first compound 0.005 µM): 0.615
relative viability ([17]; first compound 0.01581 µM): 0.724
relative viability ([17]; first compound 0.05 µM): 0.79
relative viability ([17]; first compound 0.1581 µM): 0.641
relative viability ([17]; first compound 0.5 µM): 0.831
relative viability ([18]; first compound 0.005 µM): 1
relative viability ([18]; first compound 0.01581 µM): 0.885
relative viability ([18]; first compound 0.05 µM): 0.942
relative viability ([18]; first compound 0.1581 µM): 1.2
relative viability ([18]; first compound 0.5 µM): 0.859
relative viability ([19]; first compound 0.005 µM): 0.972
relative viability ([19]; first compound 0.01581 µM): 0.979
relative viability ([19]; first compound 0.05 µM): 0.989
relative viability ([19]; first compound 0.1581 µM): 1.16
relative viability ([19]; first compound 0.5 µM): 1.03

Nc1ccn([C@@H]2O[C@H](CO)[C@@H](O)[C@@H]2O)c(=O)n1 [Cytarabine] + CS(=O)(=O)CCNCc1ccc(-c2ccc3ncnc(Nc4ccc(OCc5cccc(F)c5)c(Cl)c4)c3c2)o1 [Lapatinib] (partner 2 µM)
relative viability ([1]; first compound 0.005 µM): 0.857
relative viability ([1]; first compound 0.01581 µM): 0.85
relative viability ([1]; first compound 0.05 µM): 0.763
relative viability ([1]; first compound 0.1581 µM): 0.283
relative viability ([1]; first compound 0.5 µM): 0.287
relative viability ([2]; first compound 0.005 µM): 0.735
relative viability ([2]; first compound 0.01581 µM): 0.535
relative viability ([2]; first compound 0.05 µM): 0.363
relative viability ([2]; first compound 0.1581 µM): 0.202
relative viability ([2]; first compound 0.5 µM): 0.195
relative viability ([3]; first compound 0.005 µM): 0.515
relative viability ([3]; first compound 0.01581 µM): 0.224
relative viability ([3]; first compound 0.05 µM): 0.144
relative viability ([3]; first compound 0.1581 µM): 0.0848
relative viability ([3]; first compound 0.5 µM): 0.0542
relative viability ([4]; first compound 0.005 µM): 0.71
relative viability ([4]; first compound 0.01581 µM): 0.929
relative viability ([4]; first compound 0.05 µM): 0.682
relative viability ([4]; first compound 0.1581 µM): 0.618
relative viability ([4]; first compound 0.5 µM): 0.546
relative viability ([5]; first compound 0.005 µM): 0.935
relative viability ([5]; first compound 0.01581 µM): 0.749
relative viability ([5]; first compound 0.05 µM): 0.581
relative viability ([5]; first compound 0.1581 µM): 0.461
relative viability ([5]; first compound 0.5 µM): 0.355
relative viability ([6]; first compound 0.005 µM): 0.93
relative viability ([6]; first compound 0.01581 µM): 0.935
relative viability ([6]; first compound 0.05 µM): 0.984
relative viability ([6]; first compound 0.1581 µM): 0.532
relative viability ([6]; first compound 0.5 µM): 0.431
relative viability ([7]; first compound 0.005 µM): 0.735
relative viability ([7]; first compound 0.01581 µM): 0.729
relative viability ([7]; first compound 0.05 µM): 0.588
relative viability ([7]; first compound 0.1581 µM): 0.669
relative viability ([7]; first compound 0.5 µM): 0.554
relative viability ([8]; first compound 0.005 µM): 0.766
relative viability ([8]; first compound 0.01581 µM): 0.602
relative viability ([8]; first compound 0.05 µM): 0.606
relative viability ([8]; first compound 0.1581 µM): 0.339
relative viability ([8]; first compound 0.5 µM): 0.28
relative viability ([9]; first compound 0.005 µM): 1.08
relative viability ([9]; first compound 0.01581 µM): 0.997
relative viability ([9]; first compound 0.05 µM): 1.04
relative viability ([9]; first compound 0.1581 µM): 0.889
relative viability ([9]; first compound 0.5 µM): 0.919
relative viability ([10]; first compound 0.005 µM): 1.03
relative viability ([10]; first compound 0.01581 µM): 0.903
relative viability ([10]; first compound 0.05 µM): 0.785
relative viability ([10]; first compound 0.1581 µM): 0.746
relative viability ([10]; first compound 0.5 µM): 0.609
relative viability ([11]; first compound 0.005 µM): 0.596
relative viability ([11]; first compound 0.01581 µM): 0.411
relative viability ([11]; first compound 0.05 µM): 0.27
relative viability ([11]; first compound 0.1581 µM): 0.128
relative viability ([11]; first compound 0.5 µM): 0.0883
relative viability ([12]; first compound 0.005 µM): 0.926
relative viability ([12]; first compound 0.01581 µM): 0.937
relative viability ([12]; first compound 0.05 µM): 0.767
relative viability ([12]; first compound 0.1581 µM): 0.288
relative viability ([12]; first compound 0.5 µM): 0.213
relative viability ([13]; first compound 0.005 µM): 1.01
relative viability ([13]; first compound 0.01581 µM): 0.942
relative viability ([13]; first compound 0.05 µM): 0.764
relative viability ([13]; first compound 0.1581 µM): 0.659
relative viability ([13]; first compound 0.5 µM): 0.825
relative viability ([14]; first compound 0.005 µM): 0.73
relative viability ([14]; first compound 0.01581 µM): 0.701
relative viability ([14]; first compound 0.05 µM): 0.61
relative viability ([14]; first compound 0.1581 µM): 0.516
relative viability ([14]; first compound 0.5 µM): 0.449
relative viability ([15]; first compound 0.005 µM): 0.606
relative viability ([15]; first compound 0.01581 µM): 0.549
relative viability ([15]; first compound 0.05 µM): 0.414
relative viability ([15]; first compound 0.1581 µM): 0.333
relative viability ([15]; first compound 0.5 µM): 0.256
relative viability ([16]; first compound 0.005 µM): 0.974
relative viability ([16]; first compound 0.01581 µM): 0.636
relative viability ([16]; first compound 0.05 µM): 0.734
relative viability ([16]; first compound 0.1581 µM): 0.203
relative viability ([16]; first compound 0.5 µM): 0.165
relative viability ([17]; first compound 0.005 µM): 0.692
relative viability ([17]; first compound 0.01581 µM): 0.51
relative viability ([17]; first compound 0.05 µM): 0.365
relative viability ([17]; first compound 0.1581 µM): 0.189
relative viability ([17]; first compound 0.5 µM): 0.132
relative viability ([18]; first compound 0.005 µM): 1.04
relative viability ([18]; first compound 0.01581 µM): 0.967
relative viability ([18]; first compound 0.05 µM): 0.894
relative viability ([18]; first compound 0.1581 µM): 0.678
relative viability ([18]; first compound 0.5 µM): 0.402
relative viability ([19]; first compound 0.005 µM): 1.12
relative viability ([19]; first compound 0.01581 µM): 0.912
relative viability ([19]; first compound 0.05 µM): 0.91
relative viability ([19]; first compound 0.1581 µM): 0.676
relative viability ([19]; first compound 0.5 µM): 0.551
